Experimental data published in ChEMBL document CHEMBL1143132, “Synthesis and protective effects of coumarin derivatives against oxidative stress induced by doxorubicin” (2008).
Calls of active or inactive are those of the source. No cut-off for these calls is given here.

What was measured:
[1] = tested on: MCF7; test: Antioxidant activity in human MCF7 cells assessed as reduction of H2O2 production at 100 uM; assay type: functional, cell-based
[2] = tested on: MCF7; test: Protective effect against doxorubicin-induced oxidative stress in human MCF7 cells assessed as reduction of ROS level at 25 uM; assay type: functional, cell-based
[3] = tested on: MCF7; test: Cytotoxicity against human MCF7 cells at 100 uM; assay type: functional

| Structure (SMILES) | Activity [1] | Activity [2] | Activity [3] |
| --- | --- | --- | --- |
| Cc1cc(=O)oc2c(O)c(O)ccc12 | Active | Active |  |
| CCCCCCCCCCCCSCc1cc(=O)oc2c(OC(C)=O)c(OC(C)=O)ccc12 | Active |  | 70% |
| Cc1c(Cl)c(=O)oc2c(O)c(O)ccc12 | Active |  |  |
